Results from article PMC11842588, “A first-in-class selective inhibitor of ERK1/2 and ERK5 overcomes drug resistance with a single-molecule strategy” (Signal Transduction and Targeted Therapy, 2025).

Legend:
ERK1 = ERK1 (Homo sapiens, UniProt P27361); test: ADP-Glo kinase assay; type: biochemical
Protocol: (§1) The full-length human ERK1 or ERK2 with His-tag was cloned into a pET28a vector. hERK1/2 were expressed in Escherichia coli BL21(DE3), and then were purified using sequential Ni-NTA and Superdex 200 column steps. The SEC purified sample was then concentrated to 10 mg/ml and stored at −80 °C with buffer containing 20 mM HEPES pH 7.5, 150 mM NaCl. ERK5 (residues 48–395) containing His and GST tags was cloned into the pFastBac vector, and the recombinant plasmid was extracted. The recombinant plasmid was transformed into the DH10bac strain, and monoclonal was selected for culture. The recombinant Bacmid was then extracted according to the instructions of the Baculovirus Shuttle Vector Bacmid Mini Preparation Kit (Beyotime) and validated by PCR. 1 × 10^6/well Sf9 cells were counted for transfection and then amplified to obtain P3 ERK5 recombinant baculovirus. It was added to 2 × 10^6/mL Sf9 cells and incubated at 27 °C for 72 h on a shaker to express ERK5. Cells were lysed and supernatant was collected on a Ni-NTA for purification, and a 250 mM imidazole eluate was collected. Next, digestion by TEV protease was performed overnight while dialysis was performed in approximately 1000 mL of imidazole-free buffer. The digested ERK5 protein was sequentially purified on the Ni-NTA and GST-tag Purification Resin, followed by size exclusion chromatography on a Superdex 75 column. ERK5 protein was collected and concentrated to 12 mg/ml and stored at −80 °C in buffer containing 50 mM HEPES pH 8.0, 200 mM NaCl, 10% (v/v) glycerol.
(§2) ERK1/2/5 kinase activity assay was conducted using ADP-Glo™ Kinase Assay. 2× ATP solution and 2× kinase & Metal solution were prepared using assay buffer were prepared using assay buffer containing 50 mM Hepes pH 7.5, 10 mM MgCl2; 0.01% Brij35, 1 mM EGTA, 2 mM DTT. Transfer 40 nL compounds to 384 assay plate. Add 2 μL of 2× kinase & Metal solution were mixed and incubated in a 384-assay plate for 10 min at 25 °C. 2 μL of 2×ATP solution was added and incubated at 25 °C for 60 min. And then, each well was supplemented with 4 µL of ADP-Glo^TM reagent and incubated at 25 °C for 40 min. Subsequently, 8 µL of Kinase Detection Reagent was added and incubated at 25 °C for 40 min. Finally, the luminescence signals were recorded. The IC50 values were calculated using GraphPad Prism 9.5 software.

ERK5 = ERK5 (Homo sapiens, UniProt Q13164); test: ADP-Glo kinase assay; type: biochemical
Protocol: as §1, §2

ERK2 = ERK2 (Homo sapiens, UniProt P28482); test: ADP-Glo kinase assay; type: biochemical
Protocol: as §1, §2

MDA-MB-231 cells = test: MTT cell viability assay; type: cell-based
Protocol: (§3) MDA-MB-468 and MDA-MB-436 cells were cultured in Leibovitz’s L-15 medium supplemented with 10% fetal bovine serum. […] All of the cells were cultured at 37 °C in a humidified atmosphere containing 5% CO2.
(§4) Cancer cells were seeded in a density in 96-well plates (2 × 10^3 cells per well). After incubation for 24 h, cancer cells were treated with compounds (0–20 μM) for 72 h.

MDA-MB-468 cells = test: MTT cell viability assay; type: cell-based
Protocol: as §3, §4

MDA-MB-231 xenograft = MDA-MB-231 xenograft tumor growth inhibition; type: in vivo, nude mice (BALB/c-nu); settings: 50 mg/kg (each drug), intragastric once daily, 16 days, by tumor weight
Protocol: All procedures were performed in accordance with the Laboratory Animals Welfare Act, the Guide for the Care and Use of Laboratory Animals and the Guidelines and Policies. The rodent experiment was approved by IACUC (Institutional Animal Care and Use Committee) in the Experimental Animal Ethics Committee of West China Hospital (Approval No. 2021672A). 48 female nude mice (BALB/c-nu, 5 weeks, 15–18 g, purchased from Beijing HFK Bio-Technology Co., LTD) were acclimatized for one week in an SPF-grade animal facility (ventilated, 20–25 °C, 50–60% humidity). […] When the tumor volume reached approximately 100 mm^3 (V = L × W^2/2), the mice were randomly divided into six groups (n = 8 per group): (1) Control group (normal saline); (2) 25 mg/kg SKLB-D18-treated group; (3) 50 mg/kg SKLB-D18-treated group; (4) 50 mg/kg BVD-523-treated group; (5) 50 mg/kg XMD8-92-treated group; (6) BVD-523 (50 mg/kg) and XMD8-92 (50 mg/kg) combined treatment group. Drugs were freshly prepared with 5% DMSO, 10% Solutol HS-15, and 85% normal saline on the day of administration. Intragastric administration occurred once daily at the same time for 16 consecutive days. And the body weight and tumor volume of mice were measured every three days. After the administration period, all nude mice were euthanized by cervical dislocation the next day. Tumors and vital organs (heart, liver, spleen, lung, kidney) were dissected, and tumors were weighed, then immediately fixed in 4% paraformaldehyde or stored in −80 °C.

Chain of ERK5 (Q13164 whole entry): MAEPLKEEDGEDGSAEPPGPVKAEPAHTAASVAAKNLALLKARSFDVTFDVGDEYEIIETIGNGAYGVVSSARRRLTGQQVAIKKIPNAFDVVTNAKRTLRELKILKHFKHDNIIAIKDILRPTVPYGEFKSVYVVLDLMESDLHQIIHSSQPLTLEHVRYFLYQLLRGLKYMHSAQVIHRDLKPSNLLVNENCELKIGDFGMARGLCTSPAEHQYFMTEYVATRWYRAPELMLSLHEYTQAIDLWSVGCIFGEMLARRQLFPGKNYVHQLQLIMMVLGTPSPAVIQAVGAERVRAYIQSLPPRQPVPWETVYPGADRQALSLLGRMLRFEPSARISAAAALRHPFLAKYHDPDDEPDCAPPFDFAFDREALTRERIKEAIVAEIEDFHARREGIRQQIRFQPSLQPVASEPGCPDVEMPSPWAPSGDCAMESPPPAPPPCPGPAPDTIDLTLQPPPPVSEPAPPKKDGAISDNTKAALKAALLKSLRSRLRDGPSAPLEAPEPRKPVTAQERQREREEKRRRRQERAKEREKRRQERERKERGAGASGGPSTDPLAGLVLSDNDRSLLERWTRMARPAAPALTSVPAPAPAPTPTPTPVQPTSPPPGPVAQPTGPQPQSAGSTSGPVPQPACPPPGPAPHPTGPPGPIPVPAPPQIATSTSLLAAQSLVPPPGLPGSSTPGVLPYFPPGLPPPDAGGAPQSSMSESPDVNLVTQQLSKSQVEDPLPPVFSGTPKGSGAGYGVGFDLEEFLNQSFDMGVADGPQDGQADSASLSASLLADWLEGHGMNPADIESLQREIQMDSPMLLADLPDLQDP
Chain of ERK2 (P28482 whole entry): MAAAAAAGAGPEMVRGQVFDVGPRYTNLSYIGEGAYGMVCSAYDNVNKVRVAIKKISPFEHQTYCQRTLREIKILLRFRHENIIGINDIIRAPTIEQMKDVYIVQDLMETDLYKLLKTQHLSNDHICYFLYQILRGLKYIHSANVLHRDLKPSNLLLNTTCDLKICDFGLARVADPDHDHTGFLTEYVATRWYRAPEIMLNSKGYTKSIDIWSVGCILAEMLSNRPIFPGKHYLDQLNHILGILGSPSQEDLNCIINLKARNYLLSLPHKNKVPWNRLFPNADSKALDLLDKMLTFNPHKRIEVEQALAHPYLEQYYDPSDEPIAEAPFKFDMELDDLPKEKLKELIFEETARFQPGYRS
Chain of ERK1 (P27361 whole entry, the tested form may be a part): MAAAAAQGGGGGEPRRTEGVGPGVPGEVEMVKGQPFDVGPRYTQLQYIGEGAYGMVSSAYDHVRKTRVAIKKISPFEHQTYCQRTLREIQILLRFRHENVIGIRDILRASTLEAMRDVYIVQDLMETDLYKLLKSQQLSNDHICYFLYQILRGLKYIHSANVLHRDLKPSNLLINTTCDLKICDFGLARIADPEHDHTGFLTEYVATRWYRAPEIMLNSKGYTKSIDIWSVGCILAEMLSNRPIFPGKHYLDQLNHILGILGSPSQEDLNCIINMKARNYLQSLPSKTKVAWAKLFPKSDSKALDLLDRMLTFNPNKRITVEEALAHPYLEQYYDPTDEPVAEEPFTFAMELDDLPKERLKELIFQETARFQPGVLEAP

| Enzyme inhibitory activity (500 nM, %) ERK1 (ERK1) | Enzyme inhibitory activity (500 nM, %) ERK5 (ERK5) | Enzyme inhibitory activity (500 nM, %) ERK2 (ERK2) | inhibition at 0.5 µM (ERK1; read-out: Enzyme inhibitory activity (500 nM, %) ERK1) | inhibition at 0.5 µM (ERK5; read-out: Enzyme inhibitory activity (500 nM, %) ERK5) | inhibition at 0.5 µM (ERK2; read-out: Enzyme inhibitory activity (500 nM, %) ERK2) | IC50 (MDA-MB-231 cells; Homo sapiens, MDA-MB-231, read-out: IC50 MDA-MB-231, MTT, 72 h) | IC50 (MDA-MB-468 cells; Homo sapiens, MDA-MB-468, MTT, 72 h) | SMILES | Anti-proliferative activity (10 μM, %) MDA-MB-231 (MDA-MB-231 cells) | Anti-proliferative activity (10 μM, %) MDA-MB-468 (MDA-MB-468 cells) | tumor inhibition rate (MDA-MB-231 xenograft) |
| --- | --- | --- | --- | --- | --- | --- | --- | --- | --- | --- | --- |
| 45.29 ± 1.30% | 23.12 ± 3.21% | 43.22 ± 0.23% |  |  |  |  |  | COc1ccc(NC(=O)c2cc(-c3nc(Nc4c(C)nn(C)c4C)ncc3Cl)cs2)cc1 [9d, 4-(5-chloro-2-((1,3,5-trimethyl-1H-pyrazol-4-yl)amino)pyrimidin-4-yl)-N-(4-methoxyphenyl)thio-phene-2-carboxamide] | 7.54 ± 1.23% | 24.33 ± 0.84% |  |
| 77.32 ± 2.34% | 45.32 ± 0.09% | 76.45 ± 0.01% |  |  |  |  |  | COc1ccc(NC(=O)c2cc(-c3nc(Nc4ccccc4)ncc3Cl)cs2)cc1 [9e] | 23.33 ± 0.56% | 25.10 ± 1.53% |  |
| 77.02 ± 3.21% | 65.54 ± 0.88% | 78.90 ± 2.31% |  |  |  |  |  | COc1ccc(NC(=O)c2cc(-c3nc(Nc4cccc(N(C)C)c4)ncc3Cl)cs2)cc1 [9h] | 11.21 ± 0.47% | 20.15 ± 0.77% |  |
| 2.13 ± 1.56% | 71.14 ± 0.43% | -1.29 ± 0.02% |  |  |  |  |  | CN(C)Cc1cccc(Nc2ncc(Cl)c(-c3csc(C(=O)Nc4ccncn4)c3)n2)c1 [18i] | 41.35 ± 1.20% | 30.29 ± 0.83% |  |
|  |  |  | 7.98 ± 0.6% | 81.8 ± 2.1% | 5.97 ± 1.02% |  |  | Cc1cc(NC(=O)c2cc(-c3nc(Nc4cccc(CN(C)C)c4)ncc3Cl)cs2)ccn1 [18j, 4-(5-chloro-2-((3-((dimethylamino)methyl)phenyl)amino)pyrimidin-4-yl)-N-(2-methylpyridin-4-yl)thiophene-2-carboxamide] | 39.25 ± 0.21% | 59.17 ± 2.12% |  |
| 45.23 ± 2.12% | 86.64 ± 0.89% | 43.61 ± 1.45% |  |  |  |  |  | CN(C)Cc1cccc(Nc2ncc(Cl)c(-c3csc(C(=O)Nc4ccnn4C)c3)n2)c1 [18k] | 39.77 ± 0.31% | -3.93 ± 1.21% |  |
| 90.27 ± 1.78% | 79.74 ± 0.07% | 91.03 ± 1.23% |  |  |  |  |  | CN(C)Cc1cccc(Nc2ncc(Cl)c(-c3csc(C(=O)NN4CCN(C)CC4)c3)n2)c1 [18n] | 54.82 ± 1.21% | 86.37 ± 0.43% |  |
|  |  |  |  |  |  | 6.47 ± 0.19 µM | 5.26 ± 0.66 µM | CC(C)Nc1cc(-c2c[nH]c(C(=O)N[C@H](CO)c3cccc(Cl)c3)c2)c(Cl)cn1 [BVD-523, reference compound] |  |  | 36.01% |
|  |  |  |  |  |  |  |  | CCOc1cc(N2CCC(O)CC2)ccc1Nc1ncc2c(n1)N(C)c1ccccc1C(=O)N2C [XMD8-92] |  |  | 7.75% |
